Tests used:
[1] = biological target: T1, Cytochrome P450 11B1, mitochondrial (Bos taurus, UniProt P15150); assay: Inhibition of bovine adrenal gland 11beta-hydroxylase assessed as inhibition of [14C]-deoxycorticosterone hydroxylation at 2 uM; settings: cattle
T1 sequence (P15150 whole entry): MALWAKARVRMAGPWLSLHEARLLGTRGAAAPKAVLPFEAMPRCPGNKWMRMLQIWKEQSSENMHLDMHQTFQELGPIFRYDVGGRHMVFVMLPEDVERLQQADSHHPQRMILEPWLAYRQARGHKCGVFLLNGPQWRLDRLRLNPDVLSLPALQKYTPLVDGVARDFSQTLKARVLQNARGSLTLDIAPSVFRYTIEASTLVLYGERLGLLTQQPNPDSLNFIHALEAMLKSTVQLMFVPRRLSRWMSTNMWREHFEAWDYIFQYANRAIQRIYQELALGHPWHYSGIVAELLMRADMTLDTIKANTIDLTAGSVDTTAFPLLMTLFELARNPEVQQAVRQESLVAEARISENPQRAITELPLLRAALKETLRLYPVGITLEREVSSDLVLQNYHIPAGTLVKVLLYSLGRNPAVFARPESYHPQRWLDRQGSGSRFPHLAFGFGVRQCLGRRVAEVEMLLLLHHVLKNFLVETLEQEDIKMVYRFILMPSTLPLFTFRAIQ

[2] = biological target: T1, Cytochrome P450 11B1, mitochondrial; assay: Inhibition of bovine adrenal gland 11beta-hydroxylase assessed as inhibition of [14C]-deoxycorticosterone hydroxylation at 2 uM relative to metyrapone; settings: cattle
[3] = biological target: T1, Cytochrome P450 11B1, mitochondrial; assay: Inhibition of bovine adrenal gland 11beta-hydroxylase assessed as inhibition of [14C]-deoxycorticosterone hydroxylation
[4] = biological target: T1, Cytochrome P450 11B1, mitochondrial; assay: Inhibition of bovine adrenal gland 11beta-hydroxylase assessed as amount of corticosterone production using 22 nmol [14C]-deoxycorticosterone measured per 5 mins at 2 nmol (reference value: 1.3 +/- 0.04 nmol); settings: cattle
[5] = biological target: T1, Cytochrome P450 11B1, mitochondrial; assay: Inhibition of bovine adrenal gland 11beta-hydroxylase assessed as amount of corticosterone production using 22 nmol [14C]-deoxycorticosterone measured per 5 mins at 2 nmol; settings: cattle
[6] = biological target: T1, Cytochrome P450 11B1, mitochondrial; assay: Inhibition of bovine adrenal gland 11beta-hydroxylase assessed as amount of corticosterone production using 11 nmol [14C]-deoxycorticosterone measured per 5 mins at 2 nmol (reference value: 1.3 +/- 0.04 nmol); settings: cattle
[7] = biological target: T1, Cytochrome P450 11B1, mitochondrial; assay: Inhibition of bovine adrenal gland 11beta-hydroxylase assessed as amount of corticosterone production using 11 nmol [14C]-deoxycorticosterone measured per 5 mins at 2 nmol; settings: cattle

Row | Compound | inhibition at 2 µM [1] [%] | Ratio [2] | also measured
1 | O=C(c1cccnc1)C(c1ccccc1)c1cccnc1 (stereo not drawn) | 35 | 0.52 | –
2 | O=C(c1ccccc1)C(c1ccccc1)c1cccnc1 (stereo not drawn) | 22 | 0.32 | –
3 | O=C(c1cccnc1)C(c1ccccc1)c1ccccc1 | 15 | 0.22 | –
4 | O=C(Cc1ccccc1)c1cccnc1 | 9 | 0.13 | –
5 | CC(C(=O)c1cccnc1)c1ccccc1 (stereo not drawn) | 13 | 0.19 | –
6 | OC(c1ccccc1)C(c1ccccc1)c1cccnc1 (stereo not drawn) | 44 | 0.65 | –
7 | OC(c1cccnc1)C(c1ccccc1)c1ccccc1 (stereo not drawn) | 17 | 0.25 | –
8 | CC(C(=O)c1ccccc1)c1cccnc1 (stereo not drawn) | 44 | 0.65 | –
9 | O=C(Cc1cccnc1)c1ccccc1 | 15 | 0.22 | –
10 | OC(c1cccnc1)C(c1ccccc1)c1cccnc1 (racemic) | 9 | 0.13 | –
11 | OC(Cc1cccnc1)c1cccnc1 (racemic) | 7 | 0.1 | –
12 | C[C@@H](c1cccnc1)[C@@H](O)c1cccnc1 (relative stereo) | 28 | 0.41 | –
13 | CC(C)(c1cccnc1)C(O)c1cccnc1 (stereo not drawn) [METYRAPOL] | 44 | 0.65 | –
14 | CC(C)(C(=O)c1cccnc1)c1cccnc1 [METYRAPONE] | 68 | 1 | Ki [3]: 580 nM; Activity [4]: 0.74 nmol; inhibition (INH) [5]: 68%; Activity [6]: 0.39 nmol; inhibition (INH) [7]: 70%
